Patent publication US4603145A, “Antiatherosclerotic diphenyl alkanamides” (American Cyanamid Company, priority 1983, dated 1986)

The compounds below were run against T1, fatty acyl CoA:cholesterol acyl transferase (ACAT) (Rattus norvegicus, UniProt O70536) (assay: Inhibition of enzymatic esterification of cholesterol (ACAT), rat adrenal microsomal supernatant). Conditions: final concentration of the test compound 5.2 μg./ml., 14C-oleoyl CoA, 37° C., read-out: % INHIBITION (percent inhibition of the ACAT enzyme compared to control values).
T1 construct: The supernatant, containing the microsomal fraction, served as the source of the cholesterol-esterifying enzyme; from tissue; host or cells: rat adrenals (supernatant of homogenate, 1,000 x g, containing the microsomal fraction)
T1 sequence (O70536 1-545): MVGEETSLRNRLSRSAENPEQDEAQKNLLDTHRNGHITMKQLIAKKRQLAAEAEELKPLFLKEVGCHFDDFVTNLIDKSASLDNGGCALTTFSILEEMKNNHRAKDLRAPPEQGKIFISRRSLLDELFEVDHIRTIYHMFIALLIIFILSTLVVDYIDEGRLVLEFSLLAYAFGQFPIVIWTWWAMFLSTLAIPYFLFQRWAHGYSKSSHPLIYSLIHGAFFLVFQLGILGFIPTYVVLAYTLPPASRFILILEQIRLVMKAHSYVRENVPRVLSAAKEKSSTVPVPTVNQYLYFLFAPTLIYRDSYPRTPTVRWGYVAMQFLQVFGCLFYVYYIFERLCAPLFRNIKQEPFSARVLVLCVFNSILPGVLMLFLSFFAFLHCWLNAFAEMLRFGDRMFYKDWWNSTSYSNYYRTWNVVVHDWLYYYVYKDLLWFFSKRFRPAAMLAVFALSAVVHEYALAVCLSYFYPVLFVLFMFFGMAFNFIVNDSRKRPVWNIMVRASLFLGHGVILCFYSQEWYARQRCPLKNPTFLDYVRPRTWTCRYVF
Assay type: biochemical
Method: The compounds of the present invention were tested for their ability to inhibit the enzymatic esterification of cholesterol according to the following procedure:
Rat adrenals were homogenized in 0.2M monobasic potassium phosphate buffer, pH 7.4, and centrifuged at 1,000 times gravity for 15 minutes at 5° C. The supernatant, containing the microsomal fraction, served as the source of the cholesterol-esterifying enzyme, fatty acyl CoA:cholesterol acyl transferase (ACAT). A mixture comprising 50 parts of adrenal supernatant, 10 parts of albumin (BSA) (50 mg./ml.), 20 parts of oleoyl CoA (^14 C-0.4 μCi), 3 parts of test compound, and 500 parts of buffer was pre-incubated at 37° C. for 10 minutes. After treatment with 20 parts of oleoyl CoA (^14 C-0.4 μCi), the mixture was incubated at 37° C. for 10 minutes. A control mixture, omitting the test compound, was prepared and treated in the same manner. The lipids from the incubation mixture were extracted into an organic solvent and separated by thin-layer chromatography. The cholesterol ester fraction was counted in a scintillation counter. This procedure is a modification of that described by Hashimoto, et al., Life Scie., 12 (Part II), 1-12 (1973).
The results of this test on representative compounds of this invention appear in Table I. The final concentration of the test compound was 5.2 μg./ml., and effectiveness of the compound is expressed as percent inhibition of the ACAT enzyme compared to control values.

Structure (SMILES)	inhibition at 5.2 µg/mL [%]
O=C(CC(c1ccc(Cl)cc1)c1ccc(Cl)cc1)NCc1ccccc1 [N--Benzyl-3,3-bis(p-chlorophenyl)propionamide]	35
COc1ccc(C(CC(=O)NC23CC4CC(CC(C4)C2)C3)c2ccc(OC)cc2)cc1 [N--(1-Adamantyl)-3,3-bis(p-methoxyphenyl)propionamide]	89
O=C(CC(c1ccc(Cl)cc1)c1ccc(Cl)cc1)NC12CC3CC(CC(C3)C1)C2 [N--(1-Adamantyl)-3,3-bis(p-chlorophenyl)propionamide]	97
CCCCN(CCCC)C(=O)CC(c1ccc(Cl)cc1)c1ccc(Cl)cc1 [N,N--Di-(n-butyl)-3,3-bis(p-chlorophenyl)propionamide]	48
Cc1ccc(C(CC(=O)N(Cc2ccccc2)Cc2ccccc2)c2ccc(C)cc2)cc1 [N,N--Dibenzyl-3,3-bis(p-tolyl)propionamide]	68
Cc1ccc(C(CC(=O)NC23CC4CC(CC(C4)C2)C3)c2ccc(C)cc2)cc1 [N--(1-Adamantyl)-3,3-bis(p-tolyl)propionamide]	76
CCCCN(CCCC)C(=O)CC(c1ccc(OC)cc1)c1ccc(OC)cc1 [N,N--Di-(n-butyl)-3,3-bis(p-methoxyphenyl)propionamide]	95

Results, then the compound that gave them:

inhibition at 5.2 µg/mL [%]	Structure (SMILES)
45	CCCCN(Cc1ccccc1)C(=O)CC(c1ccc(Cl)cc1)c1ccc(Cl)cc1 [N--Benzyl-N--(n-butyl)-3,3-bis(p-chlorophenyl)propionamide]
85	CCOC(=O)CNC(=O)C=C(c1ccc(Cl)cc1)c1ccc(Cl)cc1 [Ethyl N-[3,3-bis(p-chlorophenyl)acryloyl]glycinate]
68	CN(C)C(=O)CC(c1ccc(Cl)cc1)c1ccc(Cl)cc1 [N,N--Dimethyl-3,3-bis(p-chlorophenyl)propionamide]
31	NC(=O)CC(c1ccc(Cl)cc1)c1ccc(Cl)cc1 [3,3-Bis(p-chlorophenyl)propionamide]
78	COc1ccc(C(CC(=O)NCCc2ccc(OC)c(OC)c2)c2ccc(OC)cc2)cc1 [N--[2-(3,4-Dimethoxyphenyl)ethyl]-3,3-bis(p-methoxyphenyl)propionamide]
87	COc1ccc(C(CC(=O)N(Cc2ccccc2)Cc2ccccc2)c2ccc(OC)cc2)cc1 [N,N--Dibenzyl-3,3-bis(p-methoxyphenyl)propionamide]
93	O=C(CC(c1ccc(Cl)cc1)c1ccc(Cl)cc1)N(Cc1ccccc1)Cc1ccccc1 [N,N--Dibenzyl-3,3-bis(p-chlorophenyl)propionamide]
92	CCCCNC(=O)CC(c1ccc(Cl)cc1)c1ccc(Cl)cc1 [N--(n-Butyl)-3,3-bis(p-chlorophenyl)propionamide]
94	CCCCN(CCCC)C(=O)CC(c1ccc(C)cc1)c1ccc(C)cc1 [N,N--Di-(n-butyl)-3,3-bis(p-tolyl)propionamide]
